Substitutions are numbered along the chain they refer to.
Experiments:
TREK-1 channel = target: T1, TREK-1 channel (Homo sapiens, UniProt O95069); assay: Whole-cell voltage clamp of CHO cells transiently transfected with TREK-1; assay type: cell-based
T1 construct: expressed in transfected cells; host or cells: CHO cells, transient transfection
T1 sequence (O95069 1-411 isoform O95069-2): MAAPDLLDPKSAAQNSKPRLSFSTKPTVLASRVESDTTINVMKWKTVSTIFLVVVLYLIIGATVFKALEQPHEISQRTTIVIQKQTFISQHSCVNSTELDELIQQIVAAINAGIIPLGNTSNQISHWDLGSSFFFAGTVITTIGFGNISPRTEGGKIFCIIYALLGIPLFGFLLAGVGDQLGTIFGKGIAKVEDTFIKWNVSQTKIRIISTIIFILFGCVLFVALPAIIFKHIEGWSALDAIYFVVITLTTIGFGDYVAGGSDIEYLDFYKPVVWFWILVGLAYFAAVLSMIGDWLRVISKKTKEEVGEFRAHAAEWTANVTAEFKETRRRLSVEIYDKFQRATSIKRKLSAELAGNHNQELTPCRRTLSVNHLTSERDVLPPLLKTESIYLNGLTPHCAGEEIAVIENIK
From the text: (§1) cDNA of the human TREK-1, TREK-2 and TRAAK channels were subcloned into the pEGFPN1 expression vector (Invitrogen), respectively. Mutations were introduced into TREK-1 or TRAAK by PCR using the QuickChange XL sitedirected mutagenesis kit (Agilent Technologies) and were subsequently confirmed by DNA sequencing.
(§2) Chinese hamster ovary (CHO) cells were provided by the Cell Bank of Chinese Academy of Sciences (Shanghai, China). CHO cells were maintained in DMEM/F12 (Gibco) supplemented with 10% fetal bovine serum (Gibco) and 100 μg ml^−1 penicillin-streptomycin (Cellgro) in a humidified incubator at 37 °C (5% CO2). For electrophysiology experiments, cells plated in 35 mm tissue culture dishes (Corning Incorporated) were transiently transfected with the plasmids using PolyJet™ reagent (SignaGen) according to the manufacturer’s instructions. Primers used in this study are listed in Supplementary Table 4.
(§3) All electrophysiological recordings were obtained using patch-clamp recordings in two different configurations: (1) whole cell for macroscopic current dose–response curves; and (2) outside-out and inside-out for macroscopic currents recordings.
(§4) All patch-clamp recordings were conducted 36–96 h after transfection with an Axopatch-200B amplifier (Molecular Devices) at room temperature (23–25 °C). The microelectrodes fashioned from 1.5 mm thin-walled borosilicate glass with filament were pulled from Flaming/Brown type micropipette puller (P-97; SUTTER INSTRUMENT) with the resistances of 3–7 MΩ (whole cell) or 7–15 MΩ (outside-out) when filled with a solution containing (in mM): 140 KCl, 2 MgCl2, 10 EGTA, 1 CaCl2, 10 HEPES (pH 7.3, adjusted with KOH). External solution contained (in mM): 150 NaCl, 5 KCl, 0.5 CaCl2, 1.2 MgCl2, 10 HEPES (pH 7.3, adjusted with NaOH). The current signals were filtered at 1 kHz and digitized at a 10 kHz sampling frequency by using DigiData 1440 A.
(§5) Data of whole-cell voltage clamp experiments were fitted using doseResp function. The half inhibition concentrations were derived from fits of the dose–response curves to the function:1 I/I0=A1+A2-A1/1+10^logx0-xP, where I 0 and I are current amplitudes before and after application of inhibitors; A 1 and A 2 are constants between 0 and 1; x is the concentration of inhibitor; x o is the concentration when 50% inhibition was reached (IC50), P is the Hill constant.

TREK-2 = target: T2, TREK-2 (Homo sapiens, UniProt P57789); assay: Whole-cell voltage clamp of CHO cells expressing TREK-2; assay type: cell-based; conditions: mean ± s.e.m
T2 construct: expressed in transfected cells; host or cells: CHO cells, transient transfection
T2 sequence (P57789 1-538): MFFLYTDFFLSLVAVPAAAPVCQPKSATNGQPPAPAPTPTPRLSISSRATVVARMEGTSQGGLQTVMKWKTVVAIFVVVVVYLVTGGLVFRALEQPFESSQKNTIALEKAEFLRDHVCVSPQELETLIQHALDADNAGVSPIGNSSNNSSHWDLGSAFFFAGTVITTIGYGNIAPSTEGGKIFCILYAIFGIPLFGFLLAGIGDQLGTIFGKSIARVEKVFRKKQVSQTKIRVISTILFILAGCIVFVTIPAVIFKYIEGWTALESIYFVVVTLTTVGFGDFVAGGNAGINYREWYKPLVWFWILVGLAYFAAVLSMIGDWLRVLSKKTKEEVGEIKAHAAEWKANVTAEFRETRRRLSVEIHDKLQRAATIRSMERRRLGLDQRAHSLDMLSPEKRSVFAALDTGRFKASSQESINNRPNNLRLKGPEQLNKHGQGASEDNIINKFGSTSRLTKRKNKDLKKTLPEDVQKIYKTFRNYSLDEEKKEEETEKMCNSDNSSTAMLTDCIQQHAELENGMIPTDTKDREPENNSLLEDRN
From the text: as §1, §2, §3, §4, §5

TREK-1 internalization = assay: Confocal microscopic analysis of channel internalization (co-localization with Rab5a); assay type: cell-based, CHO-K1 cells; conditions: 10 μM, 20 min, vs DMSO control
Procedure: In eight-well chamber (Thermo), CHO-K1 cells were co-transfected with PEGFP-N1-TREK1 and OFP-Rab5a. After 24 h, cells were treated with 10 μM TKDC for 20 min at room temperature and DMSO as control. At the end of incubation, cells were washed with PBS, fixed with 4% paraformaldehyde and washed with PBS. Images were taken at × 100 with scan zoom 1.74 using Leica SP8 and 3D reconstruction was done using Imaris software (Bitplane) and co-localization analysis was quantified using Imaris software. An automatic threshold of red and green channels was selected. The data represent images taken from 18 different areas (n = 18).

mutant TREK-1 channels = target: T3, mutant TREK-1 channels (Homo sapiens, UniProt O95069, Q98A); assay: Whole-cell voltage clamp of mutant TREK-1 channels; assay type: cell-based; conditions: Q83A mutant
T3 construct: expressed in transfected cells; host or cells: CHO cells, transient transfection
T3 sequence (O95069 1-411 isoform O95069-2 Q83A): T1 sequence (O95069 1-411 isoform O95069-2) with Q83A
From the text: as §1, §2, §3, §4
Data of whole-cell voltage clamp experiments were fitted using doseResp function. […]

mutant TRAAK channels [1] = assay: Whole-cell voltage clamp of mutant TRAAK channels; assay type: cell-based, human; conditions: A35Q, E38T and V42Q mutants
From the text: as §1, §2, §3
(§6) All patch-clamp recordings were conducted 36–96 h after transfection with an Axopatch-200B amplifier (Molecular Devices) at room temperature (23–25 °C). […]

mutant TRAAK channels [2] = system: T4, mutant TRAAK channels; assay: Whole-cell voltage clamp of mutant TRAAK channels; assay type: cell-based, human; conditions: 100 μM, L39W mutant
T4 construct: expressed in transfected cells; host or cells: CHO cells, transient transfection
From the text: as §1, §2, §3, §6

effect on TREK-1 current (TREK-1 channel; perfusion with 10 μM): pronounced decreases in current
IC50 (TREK-1 channel; whole-cell, CHO cells, WT TREK-1, mean ± s.e.m, read-out: half-maximal inhibition concentration (IC50), TREK-1): 4.9 ± 0.6 µM
IC50 (TREK-2): 5.2 ± 1.9 µM
IC50 (mutant TREK-1 channels): 2.4 ± 0.6 µM
Structure (SMILES): CS(=O)(=O)N(CC(=O)N1CCc2ccccc2C1)c1ccc(Cl)cc1 [TKDC, N-(4-cholorphenyl)-N-(2-(3,4-dihydrosioquinolin-2(1H)-yl)-2-oxoethyl)methanesulfonamide]
TREK-1 internalization (co-localization with Rab5a) (TREK-1 internalization): did not significantly increase TREK-1 internalization
TKDC-induced inhibition of mutant TRAAK versus WT (mutant TRAAK channels [1]): enhanced inhibition
inhibitory effect on L39W TRAAK mutant versus wild type (mutant TRAAK channels [2]): weaker than the TKDC-induced
